One compound from PMC13043538, “In vitro thyroperoxidase inhibition assessment by LC-ICP-MS-based L-tyrosine iodination assay: comparison with Amplex Ultrared assay and its modifications” (Archives of Toxicology, 2026) can be followed below.

Structures are written as SMILES.

This test deals with T1, human TPO (Homo sapiens, UniProt P07202).
T1 construct: expressed in transfected cells; host or cells: HEK293T (HEK-TPOA7 clone), whole-cell lysate in 0.1% sodium deoxycholate
T1 sequence (P07202 19-933): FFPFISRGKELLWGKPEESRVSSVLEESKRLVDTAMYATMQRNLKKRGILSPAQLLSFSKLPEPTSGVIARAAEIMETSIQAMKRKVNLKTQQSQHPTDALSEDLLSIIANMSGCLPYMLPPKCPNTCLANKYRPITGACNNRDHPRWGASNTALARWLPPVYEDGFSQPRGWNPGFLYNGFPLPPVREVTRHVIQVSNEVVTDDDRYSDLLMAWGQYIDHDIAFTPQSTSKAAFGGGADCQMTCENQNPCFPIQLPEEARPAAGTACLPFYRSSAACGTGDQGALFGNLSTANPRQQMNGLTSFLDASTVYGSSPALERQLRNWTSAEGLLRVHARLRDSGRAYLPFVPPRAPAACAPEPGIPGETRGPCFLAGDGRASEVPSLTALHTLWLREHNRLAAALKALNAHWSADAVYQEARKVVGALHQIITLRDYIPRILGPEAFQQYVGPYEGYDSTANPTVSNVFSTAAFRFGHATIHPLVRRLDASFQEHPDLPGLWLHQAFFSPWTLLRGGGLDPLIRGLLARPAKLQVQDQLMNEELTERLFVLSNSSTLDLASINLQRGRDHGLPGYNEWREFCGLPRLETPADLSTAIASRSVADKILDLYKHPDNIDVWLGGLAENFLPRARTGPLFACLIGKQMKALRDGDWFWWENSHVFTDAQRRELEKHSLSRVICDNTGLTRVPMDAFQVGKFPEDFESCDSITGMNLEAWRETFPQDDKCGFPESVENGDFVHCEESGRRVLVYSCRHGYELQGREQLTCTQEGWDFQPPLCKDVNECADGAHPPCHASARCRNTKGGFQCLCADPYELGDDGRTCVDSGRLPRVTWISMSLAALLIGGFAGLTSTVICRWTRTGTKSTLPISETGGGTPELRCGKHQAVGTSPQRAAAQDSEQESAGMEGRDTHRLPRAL
Nature of the test: standard Amplex UltraRed (AUR) TPO assay, HEK-TPOA7 cell lysate, fluorescence. The test is classed as biochemical. The following applies: no modification, read-out: IC50 (± standard deviation). The procedure: Briefly, the cells were washed with phosphate-buffered saline (PBS), scraped, resuspended in PBS, and centrifuged for 5 min at 150 rcf. […] Lysed cells were centrifuged for 5 min at 12,000 rcf to extract the soluble protein fraction. The cell lysates were kept at − 80 °C for longer-term storage.

As for `Oc1cc(Cl)ccc1Oc1ccc(Cl)cc1Cl` [TCS, Triclosan], the IC50 is 199 µM.
